Measured values taken from ChEMBL document CHEMBL1201862, “PubChem BioAssay data set” (2004).
The source made the active and inactive calls.

Columns and labels:
Ephrin type-A receptor 4 = Ephrin type-A receptor 4 (Mus musculus, UniProt Q03137); test: EphA4 ligand-binding antagonists – biochemical, colorimetric, mouse EphA4, primary screen (AID 689); type: functional
[1] = Trypanosoma cruzi growth suppression in host cells – NIH3T3 host cells, beta-gal luminescence, confirmation (AID 2044); type: functional, cell-based;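 note: intracellular parasites grown in NIH/3T3 mouse fibroblasts as host cells; luminescent beta-galactosidase reporter signal from transgenic T. cruzi replicating inside host cells; inhibitors lower the luminescence signal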
[2] = molecular target: T1, Tyrosine-protein phosphatase non-receptor type 7 (Homo sapiens, UniProt P35236); test: HePTP tyrosine phosphatase activity blockers – biochemical, absorbance, leukemia target, primary screen (AID 521); type: functional
T1 sequence (P35236 whole entry): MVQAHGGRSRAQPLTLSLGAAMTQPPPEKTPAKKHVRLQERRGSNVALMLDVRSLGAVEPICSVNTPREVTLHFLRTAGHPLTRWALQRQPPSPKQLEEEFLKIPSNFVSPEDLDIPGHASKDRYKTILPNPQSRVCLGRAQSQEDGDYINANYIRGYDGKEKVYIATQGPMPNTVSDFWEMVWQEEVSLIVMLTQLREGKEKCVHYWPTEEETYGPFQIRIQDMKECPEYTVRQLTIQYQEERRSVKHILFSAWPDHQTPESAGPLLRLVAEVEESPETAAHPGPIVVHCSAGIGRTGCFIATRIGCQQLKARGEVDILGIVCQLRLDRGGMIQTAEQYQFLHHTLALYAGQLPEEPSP

[3] = NIH3T3 cell viability loss – ATP luminescence, mouse fibroblasts, counter-screen, dose response (AID 2010); type: functional, cell-based;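 note: cells exposed to compound for about 90 hours before reading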
[4] = molecular target: Photoreceptor-specific nuclear receptor (Homo sapiens, UniProt Q9Y5X4); test: ligands suppressing NR2E3 nuclear receptor activity – biochemical, TR-FRET, dose response (AID 463256); type: functional
[5] = molecular target: Peroxisome proliferator-activated receptor gamma/Nuclear receptor corepressor 2 (Homo sapiens, UniProt P37231+Q9Y618); test: Counterscreen for NR2E3 inverse agonists: TR-FRET-based biochemical high throughput dose response assay to identify inverse agonists of the interaction between peroxisome proliferator-activated receptor gamma (PPARg) and nuclear receptor co-repressor 2 (NCOR2).; type: functional
[6] = M. tuberculosis growth inhibition, HTS (AID 449762); type: functional
[7] = molecular target: 5-hydroxytryptamine receptor 1A (Homo sapiens, UniProt P08908); type: functional
[8] = molecular target: E3 ubiquitin-protein ligase Mdm2 (Homo sapiens, UniProt Q00987); test: MDM2-luc reporter signal enhancers, multi-concentration potency testing, MDM2 ubiquitin-protein ligase inhibitor program, whole-cell format, luminescence detection, 384-well microplate (AID 1394); type: functional;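 note: MDM2 E3 inhibitors raise luminescence so EC50 is for signal enhancement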
Mucolipin-3 = Mucolipin-3 (Homo sapiens, UniProt Q8TDD5); test: Dose response cell-based high-throughput screening assay for agonists of the transient receptor potential channel ML3 (TRPML3). [Related pubchem assays: 1526, 1424, 1448 ]; type: functional
[9] = viability loss in human Jurkat cells – cell-based, luminescence, cytotoxicity control for P. falciparum gametocyte viability project, dose response (AID 1117277); type: functional;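 note: potency reflects loss of cellular ATP meaning fewer viable cells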
[10] = viability inhibitors of stage V gametocytes – luminescence, dose response (AID 1117278); type: functional, cell-based;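 note: gametocytes exposed to compound for 24 hours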
Ion channel NompC = Ion channel NompC (Danio rerio, UniProt Q7T1G6); test: Fluorescence counterscreen assay for TRPML3 agonists: dose response cell-based high-throughput screening assay to identify agonists of the transient receptor potential channel N1 (TRPN1). [Related pubchem assays: 1526, 1424, 1448 ]; type: functional

Chain of Ephrin type-A receptor 4 (Q03137 whole entry): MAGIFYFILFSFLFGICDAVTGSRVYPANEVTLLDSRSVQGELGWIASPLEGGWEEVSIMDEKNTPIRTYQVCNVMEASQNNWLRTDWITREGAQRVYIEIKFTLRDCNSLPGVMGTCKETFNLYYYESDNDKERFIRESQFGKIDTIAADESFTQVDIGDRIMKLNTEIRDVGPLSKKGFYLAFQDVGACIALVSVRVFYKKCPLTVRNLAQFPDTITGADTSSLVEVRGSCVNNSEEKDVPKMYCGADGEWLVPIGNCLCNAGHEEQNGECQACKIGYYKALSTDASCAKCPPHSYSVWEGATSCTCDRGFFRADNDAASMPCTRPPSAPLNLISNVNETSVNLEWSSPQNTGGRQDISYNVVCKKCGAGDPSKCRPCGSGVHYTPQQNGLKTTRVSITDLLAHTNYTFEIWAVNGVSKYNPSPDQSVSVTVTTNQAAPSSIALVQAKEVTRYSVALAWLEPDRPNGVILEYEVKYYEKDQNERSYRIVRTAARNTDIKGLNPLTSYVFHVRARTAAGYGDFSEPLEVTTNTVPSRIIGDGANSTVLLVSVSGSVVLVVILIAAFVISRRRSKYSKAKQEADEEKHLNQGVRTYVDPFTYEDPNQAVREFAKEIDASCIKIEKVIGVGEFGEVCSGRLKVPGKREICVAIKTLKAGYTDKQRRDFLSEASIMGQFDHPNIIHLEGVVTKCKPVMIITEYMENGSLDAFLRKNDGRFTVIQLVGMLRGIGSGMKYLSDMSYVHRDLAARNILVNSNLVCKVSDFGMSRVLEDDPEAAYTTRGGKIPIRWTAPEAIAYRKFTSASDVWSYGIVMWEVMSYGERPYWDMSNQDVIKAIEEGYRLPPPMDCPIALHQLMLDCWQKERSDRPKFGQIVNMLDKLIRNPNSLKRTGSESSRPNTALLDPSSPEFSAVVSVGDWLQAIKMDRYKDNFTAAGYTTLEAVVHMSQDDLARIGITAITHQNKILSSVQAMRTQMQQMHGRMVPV
Chain of Photoreceptor-specific nuclear receptor (Q9Y5X4 whole entry): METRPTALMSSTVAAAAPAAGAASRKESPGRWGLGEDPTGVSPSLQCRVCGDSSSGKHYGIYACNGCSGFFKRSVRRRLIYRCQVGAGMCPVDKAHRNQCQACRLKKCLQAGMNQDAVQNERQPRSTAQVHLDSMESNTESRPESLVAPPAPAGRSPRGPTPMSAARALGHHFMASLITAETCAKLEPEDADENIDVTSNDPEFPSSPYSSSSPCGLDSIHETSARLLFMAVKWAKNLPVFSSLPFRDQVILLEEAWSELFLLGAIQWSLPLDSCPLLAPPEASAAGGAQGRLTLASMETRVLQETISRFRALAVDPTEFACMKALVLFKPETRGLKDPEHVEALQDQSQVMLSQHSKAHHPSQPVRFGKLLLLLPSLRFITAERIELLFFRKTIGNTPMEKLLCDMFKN
Chain of Peroxisome proliferator-activated receptor gamma/Nuclear receptor corepressor 2 (P37231 whole entry): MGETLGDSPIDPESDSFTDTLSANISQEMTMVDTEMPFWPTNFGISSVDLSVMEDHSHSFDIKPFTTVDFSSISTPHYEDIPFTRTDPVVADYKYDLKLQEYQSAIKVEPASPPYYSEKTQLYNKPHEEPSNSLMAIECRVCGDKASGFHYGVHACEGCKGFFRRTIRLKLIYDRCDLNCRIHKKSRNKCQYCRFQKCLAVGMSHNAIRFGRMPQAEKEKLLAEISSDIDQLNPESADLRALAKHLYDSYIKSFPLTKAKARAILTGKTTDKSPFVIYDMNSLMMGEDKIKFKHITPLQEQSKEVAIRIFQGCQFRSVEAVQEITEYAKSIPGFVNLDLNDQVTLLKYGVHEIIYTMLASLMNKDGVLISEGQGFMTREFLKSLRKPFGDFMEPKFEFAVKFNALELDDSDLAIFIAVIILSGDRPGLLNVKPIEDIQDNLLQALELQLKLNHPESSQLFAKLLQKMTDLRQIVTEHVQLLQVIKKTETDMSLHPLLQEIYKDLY
Chain of Peroxisome proliferator-activated receptor gamma/Nuclear receptor corepressor 2 (Q9Y618 whole entry): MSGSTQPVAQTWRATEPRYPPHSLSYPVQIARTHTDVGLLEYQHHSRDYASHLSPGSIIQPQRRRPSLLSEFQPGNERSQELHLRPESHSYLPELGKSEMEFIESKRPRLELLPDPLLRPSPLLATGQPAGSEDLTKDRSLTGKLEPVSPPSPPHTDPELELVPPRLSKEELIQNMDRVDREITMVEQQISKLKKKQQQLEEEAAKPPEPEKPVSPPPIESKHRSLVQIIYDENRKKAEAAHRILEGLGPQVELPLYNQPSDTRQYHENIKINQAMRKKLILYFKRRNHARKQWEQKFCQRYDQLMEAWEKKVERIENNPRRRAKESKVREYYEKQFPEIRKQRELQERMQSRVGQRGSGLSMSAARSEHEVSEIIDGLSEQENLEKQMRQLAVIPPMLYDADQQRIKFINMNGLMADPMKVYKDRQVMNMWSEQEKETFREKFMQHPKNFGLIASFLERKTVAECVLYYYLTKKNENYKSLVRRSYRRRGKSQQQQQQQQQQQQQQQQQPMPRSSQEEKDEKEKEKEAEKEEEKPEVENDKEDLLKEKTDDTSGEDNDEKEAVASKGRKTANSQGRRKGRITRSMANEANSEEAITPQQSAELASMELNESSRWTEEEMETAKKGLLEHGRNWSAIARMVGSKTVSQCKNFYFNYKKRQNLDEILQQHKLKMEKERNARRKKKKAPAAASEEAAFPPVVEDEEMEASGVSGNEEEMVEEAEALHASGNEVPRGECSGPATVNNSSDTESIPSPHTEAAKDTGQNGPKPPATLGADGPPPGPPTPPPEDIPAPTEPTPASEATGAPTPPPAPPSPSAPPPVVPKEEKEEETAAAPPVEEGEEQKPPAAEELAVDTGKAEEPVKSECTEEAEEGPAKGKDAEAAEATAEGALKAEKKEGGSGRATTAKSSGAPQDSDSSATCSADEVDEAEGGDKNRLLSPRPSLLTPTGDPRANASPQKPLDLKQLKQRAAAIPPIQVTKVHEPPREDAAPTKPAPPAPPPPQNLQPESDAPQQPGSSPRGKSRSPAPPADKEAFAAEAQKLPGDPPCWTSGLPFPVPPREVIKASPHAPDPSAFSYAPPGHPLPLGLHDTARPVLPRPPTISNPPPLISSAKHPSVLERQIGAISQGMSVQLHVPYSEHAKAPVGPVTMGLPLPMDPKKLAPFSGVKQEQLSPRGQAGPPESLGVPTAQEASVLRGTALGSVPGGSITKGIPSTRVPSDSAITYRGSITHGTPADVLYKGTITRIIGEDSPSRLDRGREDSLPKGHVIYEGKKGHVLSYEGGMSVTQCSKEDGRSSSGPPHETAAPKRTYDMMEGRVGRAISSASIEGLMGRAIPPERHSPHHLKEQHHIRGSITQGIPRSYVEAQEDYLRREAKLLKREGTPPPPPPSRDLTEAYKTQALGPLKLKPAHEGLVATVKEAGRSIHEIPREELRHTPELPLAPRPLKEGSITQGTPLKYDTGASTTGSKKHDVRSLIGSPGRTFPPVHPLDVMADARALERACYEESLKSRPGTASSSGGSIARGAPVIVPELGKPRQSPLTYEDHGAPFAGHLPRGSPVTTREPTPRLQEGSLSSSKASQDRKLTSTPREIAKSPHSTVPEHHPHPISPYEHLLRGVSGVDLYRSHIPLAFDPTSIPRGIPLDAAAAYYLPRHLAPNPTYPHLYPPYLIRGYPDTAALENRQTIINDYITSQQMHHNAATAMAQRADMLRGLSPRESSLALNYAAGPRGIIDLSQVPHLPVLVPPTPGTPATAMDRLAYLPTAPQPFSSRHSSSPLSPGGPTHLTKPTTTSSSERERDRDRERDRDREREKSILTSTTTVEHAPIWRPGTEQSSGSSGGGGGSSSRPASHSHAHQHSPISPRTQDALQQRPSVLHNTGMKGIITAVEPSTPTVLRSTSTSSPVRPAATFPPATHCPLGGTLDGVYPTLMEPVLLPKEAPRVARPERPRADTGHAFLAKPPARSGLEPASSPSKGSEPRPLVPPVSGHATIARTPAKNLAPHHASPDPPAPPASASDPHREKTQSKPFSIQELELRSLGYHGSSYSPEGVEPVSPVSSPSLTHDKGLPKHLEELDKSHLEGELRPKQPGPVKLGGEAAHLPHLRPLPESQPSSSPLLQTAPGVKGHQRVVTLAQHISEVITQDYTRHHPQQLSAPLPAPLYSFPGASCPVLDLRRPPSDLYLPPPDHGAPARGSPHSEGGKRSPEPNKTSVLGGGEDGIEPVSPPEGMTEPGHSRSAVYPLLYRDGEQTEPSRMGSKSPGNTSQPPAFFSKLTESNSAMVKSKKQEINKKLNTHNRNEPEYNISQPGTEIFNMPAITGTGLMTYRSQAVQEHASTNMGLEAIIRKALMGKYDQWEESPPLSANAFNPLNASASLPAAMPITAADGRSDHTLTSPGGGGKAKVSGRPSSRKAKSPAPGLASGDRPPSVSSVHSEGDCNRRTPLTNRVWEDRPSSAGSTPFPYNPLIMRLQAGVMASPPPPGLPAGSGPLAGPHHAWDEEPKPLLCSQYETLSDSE
Chain of 5-hydroxytryptamine receptor 1A (P08908 whole entry): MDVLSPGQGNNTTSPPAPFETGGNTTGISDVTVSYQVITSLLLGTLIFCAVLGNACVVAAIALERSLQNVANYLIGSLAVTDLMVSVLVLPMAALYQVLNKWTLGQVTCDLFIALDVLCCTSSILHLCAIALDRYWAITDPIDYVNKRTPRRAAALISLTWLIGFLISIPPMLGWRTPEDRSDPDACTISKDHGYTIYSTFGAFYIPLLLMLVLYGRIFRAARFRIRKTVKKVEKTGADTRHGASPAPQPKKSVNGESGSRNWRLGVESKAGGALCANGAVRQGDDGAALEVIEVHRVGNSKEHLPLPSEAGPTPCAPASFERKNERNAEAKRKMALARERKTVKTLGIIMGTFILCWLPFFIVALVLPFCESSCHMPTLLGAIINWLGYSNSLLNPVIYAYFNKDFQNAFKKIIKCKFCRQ

CCCCOP(=O)(OCCCC)/C(C#N)=C(/C)O
IC50 (Ephrin type-A receptor 4): > 100 µM (not active)

O=C(Nc1ccc2c(c1)OCO2)NC1CCN(Cc2ccccc2)CC1
EC50 [1]: 1 µM (active)
IC50 [2]: > 100 µM (not active)
EC50 [3]: > 60 µM (not active)

COc1ccc(N2CCN(CC(=O)Nc3ccccc3C(=O)NCc3ccccc3)CC2)cc1
IC50 [4]: 3.67 µM (active)
IC50 [5]: 3.53 µM (active)

CCCSC1=C(C#N)C(c2ccc(Cl)cc2Cl)CC(=O)N1 (stereo not drawn)
IC50 [6]: > 25 µM (active)

CN(C)CCCn1c(NC(=O)C2CCCCC2)nc2ccccc21
EC50 [7]: > 50 µM (not active)

CC(=O)NC1C(=O)N=C(SCC(=O)NC(C)c2ccccc2)NC1=O (stereo not drawn)
EC50 [8]: 1.67 µM (not active)

CCN(C(=O)c1cnc(OC)cc1C(F)(F)F)c1ccc(Cl)cc1Cl
EC50 (Mucolipin-3): 4.59 µM (active)
IC50 [9]: > 83.3 µM (inactive)
IC50 [10]: > 109 µM (inactive)
EC50 (Ion channel NompC): 8.86 µM (active)
